In brackets after ≈: the same amount, converted by molar mass.
Columns and labels:
E. coli ATCC-25922 = assay: Mouse thigh muscle model, E. coli ATCC-25922; assay type: in vivo; conditions: immunosuppressed female CD-1 mice; E. coli ATCC-25922 1.36E+06 CFU/mouse; 100 mg/kg subcutaneously at 2, 4, 6, 8 h after infection; end point 10 h
Description: 9 female CD-1 mice were divided into 3 cages, 3 mice per cage, and were injected intraperitoneally with immunosuppressant cyclophosphamide (150 mg/kg). 24 hours later, 3 cages of mice were injected intraperitoneally again with immunosuppressant cyclophosphamide (100 mg/kg). The strain E. coli ATCC-25922 was recovered on an MHA plate. The recovered colonies were picked and dissolved in saline to prepare E. coli ATCC-25922 bacterial solution with a concentration of 1.36E+07 CFU/mL for use in mouse thigh muscle infection. The amount of bacterial solution injected into the thigh muscle of the experimental mice was 100 μL/mouse, that is, the inoculation amount was 1.36E+06 CFU/mouse. 2 h after infection, the thigh muscle tissue of the mice in control group was taken and placed in 10 mL saline, homogenized, and dotted on a plate with gradient dilution. The specific administration of mice was as follows: (1) 2 h after infection: At the end point of 2 h infection, the thigh muscle tissue of the mice in the first cage was taken and placed in 10 mL saline, homogenized, and dotted on a plate with gradient dilution, two duplications for each mouse. The amount of bacteria loaded in the thigh muscle tissue of the mouse was counted. […] The amount of bacteria loaded in the thigh muscle tissue of the mouse was counted, and the experimental results were sorted and shown in Table 4.

[1] = system: Enterobacter cloacae ATCC BAA-1143 (AmpC); assay: MIC, micro-liquid dilution (CLSI); assay type: cell-based; conditions: ATCCBAA1143, E. cloacae ATCC BAA-1143, Class C (AmpC), 20-24 h, 37° C.
Description: (§1) Three strains of Klebsiella pneumonia, ATCC BAA-205 (TEM-1/SHV-1/SHV-12), ATCC BAA-1705 (KPC-2), ATCC BAA-2470 (NDM-1), Enterobacter cloacae ATCC BAA-1143 (AmpC), two strains of Escherichia coli ATCC BAA-2523 (OXA-48), ATCC 25922 were used to determine the minimum inhibitory concentration (MIC) of each of the compounds by micro-liquid dilution method according to the Institute of Clinical and Laboratory Standard (CLSI) requirements. […]. The plate was placed upside down at 37° C. and the MIC value was read after 20-24 h of incubation, and the lowest drug concentration that inhibited the growth of bacteria was set as MIC. Colony-Forming Units (CFU) refer to the total number of bacterial colonies per unit volume.

[2] = system: Klebsiella pneumonia ATCC BAA-2470 (NDM-1); assay: MIC, micro-liquid dilution (CLSI); assay type: cell-based; conditions: Klebsiella pneumoniae, ATCCBAA2470; K. pneumonia ATCC BAA-2470, Class B (NDM-1); 20-24 h, 37° C.
Description: as §1

[3] = system: Escherichia coli ATCC BAA-2523 (OXA-48); assay: MIC, micro-liquid dilution (CLSI); assay type: cell-based; conditions: ATCCBAA2523, E. coli ATCC BAA-2523, Class D (OXA-48), 20-24 h, 37° C., read-out: MIC
Description: as §1

[4] = system: Klebsiella pneumonia ATCC BAA-1705 (KPC-2); assay: MIC, micro-liquid dilution (CLSI); assay type: cell-based; conditions: Klebsiella pneumoniae, ATCCBAA1705; K. pneumonia ATCC BAA-1705, Class A (KPC-2); 20-24 h, 37° C.
Description: as §1

[5] = system: Escherichia coli ATCC 25922; assay: MIC, micro-liquid dilution (CLSI); assay type: cell-based; conditions: ATCC25922, E. coli ATCC 25922, 20-24 h, 37° C.
Description: as §1

[6] = system: Klebsiella pneumonia ATCC BAA-205 (TEM-1/SHV-1/SHV-12); assay: MIC, micro-liquid dilution (CLSI); assay type: cell-based; conditions: Klebsiella pneumoniae, ATCCBAA205; K. pneumonia ATCC BAA-205, Class A (TEM-1/SHV-1/SHV-12); 20-24 h, 37° C.
Description: as §1

- MIC [1]: 1 µg/mL (≈ 1.81 µM)
- MIC [2]: 0.5 µg/mL (≈ 0.903 µM)
- MIC [3]: 0.5 µg/mL (≈ 0.903 µM)
- MIC [4]: 0.5 µg/mL (≈ 0.903 µM)
- MIC [5]: 1 µg/mL (≈ 1.81 µM)
- MIC [6]: 0.5 µg/mL (≈ 0.903 µM)
SMILES: Nc1nc(/C(=N/OC2(C(=O)O)CC2)C(=O)N[C@@H]2C(=O)N(S(=O)(=O)O)[C@@H]2CN2CCNS2(=O)=O)cs1 [Compound 1]
- Average CFU of the mouse (amount of bacteria loaded in thigh muscle tissue) (E. coli ATCC-25922): 2.25E+05 CFU

Source: patent US12516049B2, “Sulfonylurea ring substituted monocyclic β-lactam antibiotics” (priority 2019, dated 2026)
